Assay results from paper PMC7497403, “Development of Potent PfCLK3 Inhibitors Based on TCMDC-135051 as a New Class of Antimalarials” (Journal of Medicinal Chemistry, 2020).

Tests used:
[1] = Microsomal stability; assay type: in vitro ADME; details: mouse liver microsomes; 1 μM compound
Protocol: Compounds were incubated at 37 °C at a concentration of 1 μM with CD1 mouse liver microsomes (GIBCO, Thermo Fisher Scientific) in a suspension of 50 mM potassium phosphate buffer (pH 7.4) with a final protein concentration of 0.5 mg/mL. The reaction was started by the addition of excess NADPH and then quenched at several time points starting from time 0, then at 3, 6, 9, 15, and 30 min addition of acetonitrile to an aliquot of the sample. An internal standard was added to each sample before centrifugation to remove any precipitates before monitoring loss of parent compound by HPLC analysis using Shimadzu LC-20A (Shimadzu, UK). Prism (Graphpad, USA) was used to fit an exponential decay for substrate depletion and subsequently rate constant (k) from the peak area of the parent compound to the internal standard at each time point.

[2] = tested on: PINK; details: 1 μM

Question: Which “clint (in vitro intrinsic clearance)” value [1] does the source give for `CCN(CC)Cc1ccc(OC)c(-c2cc3c(-c4ccc(C(=O)O)c(C(C)C)c4)ccnc3[nH]2)c1` [analogue 1, 4-(2-(5-((Diethylamino)methyl)-2-methoxyphenyl)-1H-pyrrolo[2,3-b]pyridin-4-yl)-2-isopropylbenzoic Acid] here?
Answer: 1.12 mL/min/g liver

Question: What about the “% Activity” value [2] of the same compound?
Answer: 106%
